According to patent US9499493B2, “2,4-pyrimidinediamine compounds and their uses” (Rigel Pharmaceuticals, Inc., priority 2002, dated 2016):

Experiments:
[1] = tested on: FcγRI-mediated degranulation; test: FcγRI receptor-mediated degranulation (activation with anti-human IgG Fab fragment); format: cell-based; settings: cells not primed with IgE, activated with rabbit anti-human IgG Fab fragment
[2] = tested on: bone marrow derived mast cells (BMMC); test: BMMC high cell density IgE activation: TNFalpha; format: cell-based, mouse; settings: anti-IgE, second part of TABLE 1, read-out: BMMC anti-IgE TNF-alpha IC50
Experimental: (§1) Inhibition of degranulation was measured at both low and high cell density by quantifying the release of the granule specific factors tryptase, histamine and hexosaminidase. Inhibition of release and/or synthesis of lipid mediators was assessed by measuring the release of leukotriene LTC4 and inhibition of release and/or synthesis of cytokines was monitored by quantifying TNF-α, IL-6 and IL-13. Tryptase and hexosaminidase were quantified using fluorogenic substrates as described in their respective examples. […] The protocols of the various assays are provided below.
(§2) After sensitizing, cells are counted, pelleted (1000 rpm, 5-10 minutes), and resuspended at 1-3×10^6 cells/ml in MT buffer. Add 100 ul of cell suspension to each well and 100 ul of compound dilutions. The final vehicle concentration is 0.5% DMSO. Incubate at 37° C. (5% CO2) for 1 hour. After 1 hour of compound treatment, stimulate cells with 6× stimulus (60 ng/ml DNP-BSA). Mix wells with the cells and allow plates to incubate at 37° C. (5% CO2) for one hour. After 1 hour incubation, pellet cells (10 minutes, 1000 RPM) and collect 200 ul per well of the supernatant, being careful not to disturb pellet, and transfer to a clean tube or 96-well plate. Place the supernatant plate on ice. During the 4-5 hour step (see next) perform the hexosiminidase assay. Resuspend cell pellet in 240 ul WEI-conditioned media containing 0.5% DMSO and corresponding concentration of compound. Incubate BMMC cells for 4-5 hours at 37° C. (5% CO2). After incubation, pellet cells (1000 RPM, 10 minutes) and collect 225 ul per well and place in −80° C. until ready to perform ELISAS. ELISAS are performed on appropriately diluted samples (determined empirically for each donor cell population so that the sample measurement falls within the standard curve) following the supplier's instructions.

[3] = tested on: bone marrow derived mast cells (BMMC); test: BMMC high cell density IgE activation: histamine; format: cell-based, mouse; settings: anti-IgE, second part of TABLE 1
Experimental: as §1, §2

[4] = tested on: cultured human mast cells (CHMC); test: CHMC low cell density ionomycin activation: tryptase assay; format: cell-based
[5] = tested on: cultured human mast cells (CHMC); test: CHMC low cell density IgE activation: tryptase assay; format: cell-based; settings: anti-IgE
Summary of the method: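 CHMC resuspended in pre-warmed MT buffer at 1000-1500 cells/well (donor-dependent) and preincubated 1 hr at 37° C, then stimulated with anti-IgE for 30 min at 37° C; unstimulated wells got MT alone. Supernatant tryptase activity read with tryptase substrate after 30 min at room temperature.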

[6] = tested on: bone marrow derived mast cells (BMMC); test: BMMC high cell density IgE activation: LTC4; format: cell-based, mouse; settings: anti-IgE, second part of TABLE 1
Experimental: as §1, §2

[7] = tested on: bone marrow derived mast cells (BMMC); test: BMMC high cell density IgE activation: IL-6; format: cell-based, mouse; settings: anti-IgE, second part of TABLE 1
Experimental: as §1, §2

[8] = tested on: bone marrow derived mast cells (BMMC); test: BMMC high cell density IgE activation: hexosaminidase; format: cell-based, mouse; settings: anti-IgE, second part of TABLE 1, read-out: BMMC anti-IgE hexos. IC50
Experimental: as §2
Hexosaminidase assay: In a solid black 96-well assay plate, add 50 uL hexosaminidase substrate (4-methylumbelliferyl-N-acetyl-(3-D-glucosaminide; 2 mM) to each well. Add 50 uL of BMMC cell supernatant (see above) to the hexoseaminidase substrate, place at 37° C. for 30 minutes and read the plate at 5, 10, 15, and 30 minutes on a spectrophotometer.

Row | FcγRI-mediated degranulation (in words) [1] | IC50 [2] [nM] | IC50 [3] [nM] | IC50 [4] [nM] | IC50 [5] [nM] | IC50 [6] [nM] | IC50 [7] [nM] | IC50 [8] [nM] | SMILES
1 | inhibit FcγRI-mediated degranulation |  |  |  |  |  |  |  | CNC(=O)COc1cccc(Nc2ncc(F)c(Nc3ccc4c(c3)NC(=O)C(F)(F)O4)n2)c1 [R921303, N4-[(2,2-Difluoro-4H-benzo[1,4]oxazin-3-one)-6-yl]-5-fluoro-N2-[3-(methylaminocarbonylmethyleneoxy)phenyl]-2,4-pyrimidinediamine]
2 |  | 772 | 1020 | > 10000 | 2910 | > 10000 | 537 | 961 | CNC(=O)COc1cccc(Nc2nc(Nc3cccc(O)c3)ncc2C(F)(F)F)c1 [R926741, N2-(3-Hydroxyphenyl)-5-trifluoromethyl-N4-[3-(N-methylamino)carbonylmethyleneoxyphenyl]-2,4-pyrimidinediamine]
3 |  | 1310 | 561 | > 10000 |  | 1410 | 513 | 989 | O=C(NC(CO)CO)c1cc2cc(Nc3ncc(F)c(Nc4ccc5c(c4)OCCO5)n3)ccc2o1 [R926785, N2-[2-(N-1,3-Dihydroxy-2-propylamino)carbonylbenzofuran-5-yl]-N4-(3,4-ethylenedioxyphenyl)-5-fluoro-2,4-pyrimidinediamine]
4 | inhibit FcγRI-mediated degranulation |  |  |  |  |  |  |  | Cc1cc(Nc2ncc(F)c(Nc3ccc4c(c3)NC(=O)C(F)(F)O4)n2)cc(Cl)c1O [R926971]
5 |  | 409 | < 220 | 552 | 96 | 373 | < 220 | < 220 | Oc1cccc(Nc2ncc(F)c(Nc3ccc(OCc4nc(-c5ccccc5)no4)cc3)n2)c1 [R935138, 5-Fluoro-N2-(3-hydroxyphenyl)-N4-[4-(3-phenyl-1,2,4-oxadiazol-5-yl)methyleneoxyphenyl]-2,4-pyrimidinediamine]
6 |  | 1130 | 306 | > 10000 | 239 | 1210 | 486 | 981 | Cc1cc(Nc2nc(Nc3cccc(OCC(=O)N4CCOCC4)c3)ncc2F)cc(Cl)c1O [R940265, N4-(3-Chloro-4-hydroxy-5-methylphenyl)-5-fluoro-N2-[3-(N-morpholino)carbonylmethyleneoxyphenyl]-2,4-pyrimidinediamine]
7 |  | 251 | 73 | > 10000 | 211 | 332 | < 56 | 136 | CNC(=O)COc1cccc(Nc2ncc(F)c(Nc3cccc(C(C)(C)C)c3)n2)c1 [R940276, N4-(3-tert-Butylphenyl)-N2-[3-(N-methylamino)carbonylmethyleneoxyphenyl]-5-fluoro-2,4-pyrimidinediamine]
8 |  | 262 | 315 | > 10000 |  | 625 | 181 | 279 | CC(C)(C)c1cccc(Nc2nc(Nc3cccc(OCC(=O)NCC(O)CO)c3)ncc2F)c1 (stereo not drawn) [R940277, N4-(3-tert-Butylphenyl)-N2-[3-(N-2,3-dihydroxypropylamino)carbonylmethyleneoxyphenyl]-5-fluoro-2,4-pyrimidinediamine]
9 | inhibit FcγRI-mediated degranulation |  |  |  | 63 |  |  |  | CNC(=O)COc1cccc(Nc2ncc(F)c(Nc3ccc4c(n3)NC(=O)C(C)(C)O4)n2)c1 [R940347, N4-[(2,2-Dimethyl-4H-5-pyrido[1,4]oxazin-3-one)-6-yl]-5-fluoro-N2-[3-(methylaminocarbonylmethyleneoxy)phenyl]-2,4-pyrimidinediamine]
10 |  | < 220 | > 2000 | > 10000 | 178 | 401 | < 220 | < 220 | CNC(=O)CNc1cccc(Nc2ncc(F)c(Nc3ccc4c(c3)OCCO4)n2)c1 [R950191]
